Test system: 496974-208-R-J2-PDC complex spheroids, growth % test/control
Assay: Anticancer human tumor 496974-208-R-J2-PDC patient-derived pancreatic carcinoma cell line growth inhibition [CLK]
Settings: for IC50: curve of first compound; for viability, T/C: stronger effect = lower value
In short: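 Patient-derived tumor cells grown as complex spheroids with HUVEC endothelial cells and mesenchymal stem cells, treated with drug combinations. Concentrations descend in half-log steps from near clinical Cmax, or from 10 microM if Cmax unknown.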

[1] = second compound 0.0316 µM, first compound 0.0316 µM
[2] = second compound 0.0316 µM, first compound 0.1 µM
[3] = second compound 0.0316 µM, first compound 0.316 µM
[4] = second compound 0.0316 µM, first compound 1 µM
[5] = second compound 0.0316 µM, first compound 3.16 µM
[6] = second compound 0.0316 µM, first compound 10 µM
[7] = second compound 0.1 µM, first compound 0.0316 µM
[8] = second compound 0.1 µM, first compound 0.1 µM
[9] = second compound 0.1 µM, first compound 0.316 µM
[10] = second compound 0.1 µM, first compound 1 µM
[11] = second compound 0.1 µM, first compound 3.16 µM
[12] = second compound 0.1 µM, first compound 10 µM
[13] = second compound 0.316 µM, first compound 0.0316 µM
[14] = second compound 0.316 µM, first compound 0.1 µM
[15] = second compound 0.316 µM, first compound 0.316 µM
[16] = second compound 0.316 µM, first compound 1 µM
[17] = second compound 0.316 µM, first compound 3.16 µM
[18] = second compound 0.316 µM, first compound 10 µM
[19] = second compound 1 µM, first compound 0.0316 µM
[20] = second compound 1 µM, first compound 0.1 µM
[21] = second compound 1 µM, first compound 0.316 µM
[22] = second compound 1 µM, first compound 1 µM
[23] = second compound 1 µM, first compound 3.16 µM
[24] = second compound 1 µM, first compound 10 µM
[25] = second compound 3.16 µM, first compound 0.0316 µM
[26] = second compound 3.16 µM, first compound 0.1 µM
[27] = second compound 3.16 µM, first compound 0.316 µM
[28] = second compound 3.16 µM, first compound 1 µM
[29] = second compound 3.16 µM, first compound 3.16 µM
[30] = second compound 3.16 µM, first compound 10 µM
[31] = second compound 10 µM, first compound 0.0316 µM
[32] = second compound 10 µM, first compound 0.1 µM
[33] = second compound 10 µM, first compound 0.316 µM
[34] = second compound 10 µM, first compound 1 µM
[35] = second compound 10 µM, first compound 3.16 µM
[36] = second compound 10 µM, first compound 10 µM
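Note: spheroids exposed to the drugs for 7 days before readout.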
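Throughout, for viability, T/C: 100% = DMSO vehicle control wells.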

SMILES: Nc1ccn(C2OC(CO)C(O)C2(F)F)c(=O)n1 (centres undefined) + CNC(=O)c1ccc(Nc2nc(OC3CCCC3)c3c(-c4ccc5nc(C)oc5c4)c[nH]c3n2)c(OC)c1
- IC50 (second compound 0.0316 µM): > 10000 nM
- IC50 (second compound 0.1 µM): > 10000 nM
- IC50 (second compound 0.316 µM): > 10000 nM
- IC50 (second compound 1 µM): 2760 nM
- IC50 (second compound 3.16 µM): 279 nM
- IC50 (second compound 10 µM): 60.6 nM
- viability, T/C [1]: 94.5%
- viability, T/C [2]: 80%
- viability, T/C [3]: 67%
- viability, T/C [4]: 65.4%
- viability, T/C [5]: 68.5%
- viability, T/C [6]: 58.5%
- viability, T/C [7]: 75.3%
- viability, T/C [8]: 80.7%
- viability, T/C [9]: 64.6%
- viability, T/C [10]: 62.9%
- viability, T/C [11]: 60.7%
- viability, T/C [12]: 54%
- viability, T/C [13]: 63.3%
- viability, T/C [14]: 74.2%
- viability, T/C [15]: 69.9%
- viability, T/C [16]: 54.8%
- viability, T/C [17]: 59.6%
- viability, T/C [18]: 65.2%
- viability, T/C [19]: 66.4%
- viability, T/C [20]: 62.5%
- viability, T/C [21]: 66.6%
- viability, T/C [22]: 53.5%
- viability, T/C [23]: 44.4%
- viability, T/C [24]: 54.7%
- viability, T/C [25]: 63.1%
- viability, T/C [26]: 59.8%
- viability, T/C [27]: 49.2%
- viability, T/C [28]: 41%
- viability, T/C [29]: 42.1%
- viability, T/C [30]: 43.7%
- viability, T/C [31]: 52.8%
- viability, T/C [32]: 49%
- viability, T/C [33]: 44.4%
- viability, T/C [34]: 39.6%
- viability, T/C [35]: 40.6%
- viability, T/C [36]: 43.1%

SMILES: C=C(F)C(=O)N1CCN(c2nc(OCC3CCCN3C)nc3c2CCN(c2cccc4cccc(Cl)c24)C3)CC1CC#N (centres undefined) + CN1CCN(c2cc(C(=O)Nc3cc4cc(-c5cnn(C)c5)ccc4cn3)ccn2)CC1
- IC50 (second compound 0.0316 µM): 5320 nM
- IC50 (second compound 0.1 µM): 4440 nM
- IC50 (second compound 0.316 µM): < 31.6 nM
- IC50 (second compound 1 µM): < 31.6 nM
- IC50 (second compound 3.16 µM): < 31.6 nM
- IC50 (second compound 10 µM): < 31.6 nM
- viability, T/C [1]: 107%
- viability, T/C [2]: 106%
- viability, T/C [3]: 89.9%
- viability, T/C [4]: 117%
- viability, T/C [5]: 88.8%
- viability, T/C [6]: 3.02%
- viability, T/C [7]: 86.1%
- viability, T/C [8]: 88.8%
- viability, T/C [9]: 75.8%
- viability, T/C [10]: 86.6%
- viability, T/C [11]: 70.8%
- viability, T/C [12]: 0.72%
- viability, T/C [13]: 7.07%
- viability, T/C [14]: 8.92%
- viability, T/C [15]: 8.59%
- viability, T/C [16]: 7.85%
- viability, T/C [17]: 6.67%
- viability, T/C [18]: 1.1%
- viability, T/C [19]: 0.58%
- viability, T/C [20]: 0.48%
- viability, T/C [21]: 1.51%
- viability, T/C [22]: 0.33%
- viability, T/C [23]: 1.52%
- viability, T/C [24]: 2.06%
- viability, T/C [25]: 0.33%
- viability, T/C [26]: 0.52%
- viability, T/C [27]: 1.57%
- viability, T/C [28]: 0.45%
- viability, T/C [29]: 0.2%
- viability, T/C [30]: 1.09%
- viability, T/C [31]: 0.35%
- viability, T/C [32]: 0.35%
- viability, T/C [33]: 0.31%
- viability, T/C [34]: 0.32%
- viability, T/C [35]: 0.74%
- viability, T/C [36]: 0.22%
